Results from PubChem BioAssay (NCI).
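Where inhibition never reached the appropriate level, the endpoint shown equals the highest concentration tested. Otherwise, values were interpolated linearly from a five-concentration, 48-hour dose response in 96-well plates. GI50: concentration for 50% inhibition of growth. At the TGI there is no net growth.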

Columns and labels:
Experiment in all cases: NCI tumour cell line growth inhibition, 48 h
A498 renal = test system: A498 renal
SNB-75 CNS = test system: SNB-75 CNS
SF-268 CNS = test system: SF-268 CNS
U251 CNS = test system: U251 CNS
K-562 leukemia = test system: K-562 leukemia
SK-MEL-5 melanoma = test system: SK-MEL-5 melanoma
CAKI-1 renal = test system: CAKI-1 renal
RXF 393 renal = test system: RXF 393 renal
HT29 colon = test system: HT29 colon
NCI-H226 lung = test system: NCI-H226 lung
NCI-H522 lung = test system: NCI-H522 lung
MALME-3M melanoma = test system: MALME-3M melanoma
RPMI-8226 leukemia = test system: RPMI-8226 leukemia
HOP-92 NSCLC = test system: HOP-92 NSCLC
KM20L2 colon = test system: KM20L2 colon
M14 melanoma = test system: M14 melanoma
KM12 colon = test system: KM12 colon
ACHN renal = test system: ACHN renal
OVCAR-3 ovarian = test system: OVCAR-3 ovarian
SNB-19 CNS = test system: SNB-19 CNS
UACC-62 melanoma = test system: UACC-62 melanoma
OVCAR-4 ovarian = test system: OVCAR-4 ovarian
SN12C renal = test system: SN12C renal
HCT-116 colon = test system: HCT-116 colon
786-0 renal = test system: 786-0 renal
OVCAR-5 ovarian = test system: OVCAR-5 ovarian
NCI-H460 lung = test system: NCI-H460 lung
SK-MEL-28 melanoma = test system: SK-MEL-28 melanoma
SK-OV-3 ovarian = test system: SK-OV-3 ovarian
HL-60(TB) leukemia = test system: HL-60(TB) leukemia
COLO 205 colon = test system: COLO 205 colon
A549 NSCLC = test system: A549 NSCLC
IGROV1 ovarian = test system: IGROV1 ovarian
SW-620 colon = test system: SW-620 colon
SK-MEL-2 melanoma = test system: SK-MEL-2 melanoma
HOP-62 NSCLC = test system: HOP-62 NSCLC
UO-31 renal = test system: UO-31 renal
HCC-2998 colon = test system: HCC-2998 colon
LOX IMVI melanoma = test system: LOX IMVI melanoma
UACC-257 melanoma = test system: UACC-257 melanoma
TK-10 renal = test system: TK-10 renal
MOLT-4 leukemia = test system: MOLT-4 leukemia
SF-539 CNS = test system: SF-539 CNS
SF-295 CNS = test system: SF-295 CNS
NCI-H23 lung = test system: NCI-H23 lung
OVCAR-8 ovarian = test system: OVCAR-8 ovarian
EKVX NSCLC = test system: EKVX NSCLC
BT-549 breast = test system: BT-549 breast
DU-145 prostate = test system: DU-145 prostate
MDA-MB-231 breast = test system: MDA-MB-231 breast
PC-3 prostate = test system: PC-3 prostate
MDA-MB-435 = test system: MDA-MB-435
MCF7 breast = test system: MCF7 breast
T-47D breast = test system: T-47D breast
SR leukemia = test system: SR leukemia
HCT-15 colon = test system: HCT-15 colon
NCI/ADR-RES ovarian = test system: NCI/ADR-RES ovarian
MDA-N = test system: MDA-N
HS 578T breast = test system: HS 578T breast
CCRF-CEM leukemia = test system: CCRF-CEM leukemia

CC(=O)[O-].O=C([CH-]C(=O)c1ccccc1)c1ccccc1.O=C([CH-]C(=O)c1ccccc1)c1ccccc1.[Dy+3]
GI50 (A498 renal): 15.5 µM
TGI (A498 renal): 61.5 µM
GI50 (SNB-75 CNS): 3.33 µM
TGI (SNB-75 CNS): 8.46 µM
GI50 (SF-268 CNS): 10.4 µM
TGI (SF-268 CNS): 56.4 µM
GI50 (U251 CNS): 11.9 µM
TGI (U251 CNS): > 100 µM
GI50 (K-562 leukemia): 3.55 µM
TGI (K-562 leukemia): 17.8 µM
GI50 (SK-MEL-5 melanoma): 6.5 µM
TGI (SK-MEL-5 melanoma): 20.9 µM
GI50 (CAKI-1 renal): 17 µM
TGI (CAKI-1 renal): 50.3 µM
GI50 (RXF 393 renal): 6.84 µM
TGI (RXF 393 renal): 34.7 µM
GI50 (HT29 colon): 11.3 µM
TGI (HT29 colon): 26.2 µM
GI50 (NCI-H226 lung): 3.79 µM
TGI (NCI-H226 lung): 15.6 µM
GI50 (NCI-H522 lung): 10.4 µM
TGI (NCI-H522 lung): 36.9 µM
GI50 (MALME-3M melanoma): 21.8 µM
TGI (MALME-3M melanoma): 67.9 µM
GI50 (RPMI-8226 leukemia): 7.87 µM
TGI (RPMI-8226 leukemia): 34.7 µM
GI50 (HOP-92 NSCLC): 18.8 µM
TGI (HOP-92 NSCLC): 43.9 µM
GI50 (KM20L2 colon): 12.9 µM
TGI (KM20L2 colon): 44.7 µM
GI50 (M14 melanoma): 15.9 µM
TGI (M14 melanoma): 36 µM
GI50 (KM12 colon): 21 µM
TGI (KM12 colon): > 100 µM
GI50 (ACHN renal): 14.3 µM
TGI (ACHN renal): > 100 µM
GI50 (OVCAR-3 ovarian): 13.9 µM
TGI (OVCAR-3 ovarian): 51.8 µM
GI50 (SNB-19 CNS): 14.8 µM
TGI (SNB-19 CNS): 70.3 µM
GI50 (UACC-62 melanoma): 9.15 µM
TGI (UACC-62 melanoma): 48.1 µM
GI50 (OVCAR-4 ovarian): 16.5 µM
TGI (OVCAR-4 ovarian): > 100 µM
GI50 (SN12C renal): 11.9 µM
TGI (SN12C renal): 59.5 µM
GI50 (HCT-116 colon): 5.75 µM
TGI (HCT-116 colon): 23.1 µM
GI50 (786-0 renal): 12 µM
TGI (786-0 renal): 35.9 µM
GI50 (OVCAR-5 ovarian): 34.9 µM
TGI (OVCAR-5 ovarian): > 100 µM
GI50 (NCI-H460 lung): 6.66 µM
TGI (NCI-H460 lung): > 100 µM
GI50 (SK-MEL-28 melanoma): 15.4 µM
TGI (SK-MEL-28 melanoma): 51.4 µM
GI50 (SK-OV-3 ovarian): 16.9 µM
TGI (SK-OV-3 ovarian): 61.5 µM
GI50 (HL-60(TB) leukemia): 2.84 µM
TGI (HL-60(TB) leukemia): 11.5 µM
GI50 (COLO 205 colon): 15.3 µM
TGI (COLO 205 colon): 34.1 µM
GI50 (A549 NSCLC): 18 µM
TGI (A549 NSCLC): 51.2 µM
GI50 (IGROV1 ovarian): 18.5 µM
TGI (IGROV1 ovarian): 93.8 µM
GI50 (SW-620 colon): 7.27 µM
TGI (SW-620 colon): > 100 µM
GI50 (SK-MEL-2 melanoma): 14.9 µM
TGI (SK-MEL-2 melanoma): 37.4 µM
GI50 (HOP-62 NSCLC): 6.91 µM
TGI (HOP-62 NSCLC): 31.9 µM
GI50 (UO-31 renal): 8.35 µM
TGI (UO-31 renal): 32.5 µM
GI50 (HCC-2998 colon): 11.6 µM
TGI (HCC-2998 colon): 36.2 µM
GI50 (LOX IMVI melanoma): 12.4 µM
TGI (LOX IMVI melanoma): 30.9 µM
GI50 (UACC-257 melanoma): 15.6 µM
TGI (UACC-257 melanoma): 40.4 µM
GI50 (TK-10 renal): 27.4 µM
TGI (TK-10 renal): 86.5 µM
GI50 (MOLT-4 leukemia): 4.59 µM
TGI (MOLT-4 leukemia): 31.9 µM
GI50 (SF-539 CNS): 18.9 µM
TGI (SF-539 CNS): 56.1 µM
GI50 (SF-295 CNS): 7.73 µM
TGI (SF-295 CNS): 28.8 µM
GI50 (NCI-H23 lung): 9.36 µM
TGI (NCI-H23 lung): 37 µM
GI50 (OVCAR-8 ovarian): 4.78 µM
TGI (OVCAR-8 ovarian): 36.5 µM
GI50 (EKVX NSCLC): 9.62 µM
TGI (EKVX NSCLC): 42.6 µM

O=C1C(CN2CCCC2)CCC1CN1CCCC1 (stereo not drawn)
TGI (A498 renal): > 100 µM
TGI (SNB-75 CNS): 33.4 µM
TGI (SF-268 CNS): 46.2 µM
TGI (BT-549 breast): 31.8 µM
TGI (U251 CNS): > 100 µM
TGI (K-562 leukemia): > 33.4 µM
TGI (SK-MEL-5 melanoma): 31.9 µM
TGI (CAKI-1 renal): 24.6 µM
TGI (RXF 393 renal): 37.2 µM
TGI (DU-145 prostate): > 100 µM
TGI (HT29 colon): 40.7 µM
TGI (NCI-H226 lung): > 74.4 µM
TGI (NCI-H522 lung): 3.52 µM
TGI (MALME-3M melanoma): 29 µM
TGI (RPMI-8226 leukemia): 34.9 µM
TGI (MDA-MB-231 breast): 26.7 µM
TGI (PC-3 prostate): > 55.9 µM
TGI (HOP-92 NSCLC): 30.1 µM
TGI (M14 melanoma): 29.7 µM
TGI (KM12 colon): > 100 µM
TGI (ACHN renal): 29.3 µM
TGI (OVCAR-3 ovarian): 32.1 µM
TGI (SNB-19 CNS): > 100 µM
TGI (MDA-MB-435): 32.9 µM
TGI (UACC-62 melanoma): 32.9 µM
TGI (OVCAR-4 ovarian): 48.7 µM
TGI (SN12C renal): > 53 µM
TGI (HCT-116 colon): 32.6 µM
TGI (786-0 renal): 29.8 µM
TGI (OVCAR-5 ovarian): > 55.9 µM
TGI (NCI-H460 lung): > 100 µM
TGI (MCF7 breast): 39.3 µM
TGI (SK-MEL-28 melanoma): 33.9 µM
TGI (SK-OV-3 ovarian): > 100 µM
TGI (HL-60(TB) leukemia): > 100 µM
TGI (COLO 205 colon): 17.5 µM
TGI (A549 NSCLC): > 100 µM
TGI (IGROV1 ovarian): > 82.3 µM
TGI (SW-620 colon): 11 µM
TGI (SK-MEL-2 melanoma): 47.1 µM
TGI (HOP-62 NSCLC): > 100 µM
TGI (UO-31 renal): 32.1 µM
TGI (HCC-2998 colon): > 100 µM
TGI (LOX IMVI melanoma): > 51.9 µM
TGI (T-47D breast): 37.8 µM
TGI (SR leukemia): > 100 µM
TGI (UACC-257 melanoma): 32.6 µM
TGI (TK-10 renal): 32.6 µM
TGI (MOLT-4 leukemia): 39.9 µM
TGI (HCT-15 colon): 31.8 µM
TGI (SF-539 CNS): 35.3 µM
TGI (SF-295 CNS): > 100 µM
TGI (NCI/ADR-RES ovarian): 56.8 µM
TGI (MDA-N): 29.9 µM
TGI (NCI-H23 lung): 38.2 µM
TGI (HS 578T breast): 55.7 µM
TGI (OVCAR-8 ovarian): 37.5 µM
TGI (CCRF-CEM leukemia): > 60.1 µM
TGI (EKVX NSCLC): > 82.7 µM

C=C1C(=O)O[C@H]2[C@@H]3O[C@@](C)(CC/C=C(\C)CCC[C@@H]2C)[C@H](O)C[C@@H]13
TGI (A498 renal): > 100 µM
TGI (SNB-75 CNS): 30.7 µM
TGI (SF-268 CNS): > 100 µM
TGI (BT-549 breast): 8.1 µM
TGI (U251 CNS): > 100 µM
TGI (K-562 leukemia): > 100 µM
TGI (SK-MEL-5 melanoma): 6.36 µM
TGI (CAKI-1 renal): 4.53 µM
TGI (RXF 393 renal): 84.3 µM
TGI (DU-145 prostate): 27.2 µM
TGI (HT29 colon): 3.94 µM
TGI (NCI-H226 lung): 5.89 µM
TGI (NCI-H522 lung): 5.67 µM
TGI (MALME-3M melanoma): 53.3 µM
TGI (MDA-MB-231 breast): 21.6 µM
TGI (PC-3 prostate): 22.1 µM
TGI (HOP-92 NSCLC): > 100 µM
TGI (M14 melanoma): 5.86 µM
TGI (KM12 colon): 26.2 µM
TGI (ACHN renal): 6.25 µM
TGI (OVCAR-3 ovarian): 9.54 µM
TGI (MDA-MB-435): 53.6 µM
TGI (UACC-62 melanoma): 20.9 µM
TGI (OVCAR-4 ovarian): 34.8 µM
TGI (SN12C renal): 8.15 µM
TGI (HCT-116 colon): > 100 µM
TGI (786-0 renal): 16.2 µM
TGI (OVCAR-5 ovarian): 31.2 µM
TGI (MCF7 breast): 15.6 µM
TGI (SK-MEL-28 melanoma): 38.8 µM
TGI (SK-OV-3 ovarian): 32.5 µM
TGI (HL-60(TB) leukemia): 53 µM
TGI (COLO 205 colon): 8.86 µM
TGI (A549 NSCLC): 24.9 µM
TGI (IGROV1 ovarian): 35.6 µM
TGI (SW-620 colon): > 100 µM
TGI (SK-MEL-2 melanoma): 27 µM
TGI (HOP-62 NSCLC): 23.1 µM
TGI (UO-31 renal): 11.9 µM
TGI (HCC-2998 colon): 31.6 µM
TGI (LOX IMVI melanoma): 16.2 µM
TGI (T-47D breast): 16.8 µM
TGI (SR leukemia): > 100 µM
TGI (UACC-257 melanoma): 27.4 µM
TGI (TK-10 renal): 17.4 µM
TGI (HCT-15 colon): 24.4 µM
TGI (SF-539 CNS): 5.6 µM
TGI (SF-295 CNS): 27.8 µM
TGI (NCI/ADR-RES ovarian): 7.62 µM
TGI (MDA-N): 10.1 µM
TGI (NCI-H23 lung): 2.96 µM
TGI (HS 578T breast): 25.9 µM
TGI (OVCAR-8 ovarian): 17.1 µM
TGI (CCRF-CEM leukemia): 81.5 µM
TGI (EKVX NSCLC): > 100 µM
